Laboratory results reported in PMC11210812, “Assessment of polymeric mucin–drug interactions” (PLOS ONE, 2024).

Experiments:
Experiment in all cases: mucin fluorescence quenching, Lineweaver-Burk fit
Assay type in all cases: binding
MUC5B = target: T1, MUC5B (Homo sapiens, UniProt Q9HC84); details: for Kd (μM) / MUC5B: PBS pH 7.4, 37 °C, unreliable (Kd above highest concentration tested)
T1 construct: native secreted polymeric gel-forming mucin, O-glycosylated, disulfide-linked; purified from human cell culture by two-step CsCl density gradient
Description: mucin fluorescence quenching, Lineweaver-Burk fit on MUC5B

MUC5AC = target: T2, MUC5AC (Homo sapiens, UniProt P98088); details: for Kd (μM) / MUC5AC: PBS pH 7.4, 37 °C, unreliable (Kd above highest concentration tested)
T2 construct: native secreted polymeric gel-forming mucin, O-glycosylated, disulfide-linked; purified from human cell culture by two-step CsCl density gradient
Description: mucin fluorescence quenching, Lineweaver-Burk fit on MUC5AC

MUC2 = target: T3, MUC2 (Homo sapiens, UniProt Q02817); details: for Kd (μM) / MUC2: PBS pH 7.4, 37 °C, unreliable (Kd above highest concentration tested)
T3 construct: native secreted polymeric gel-forming mucin, O-glycosylated, disulfide-linked; purified from human cell culture by two-step CsCl density gradient
Description: mucin fluorescence quenching, Lineweaver-Burk fit on MUC2

Row | Kd (MUC5AC) [µM] | Kd (MUC2) [µM] | SMILES | Kd (μM) / MUC5B (MUC5B; drug 0-200 μM) [µM] | Kd (μM) / MUC2 (MUC2; drug 0-200 μM) [µM] | Kd (MUC5B) [µM] | also measured
1 |  |  | Cc1cc(=O)n(-c2ccccc2)n1C [Antipyrine] | 386.0 ± 49.3 | 393.1 ± 26.2 |  | Kd (μM) / MUC5AC (MUC5AC; drug 0-200 μM): 302.0 ± 6.7 µM
2 |  |  | CO[C@H]1/C=C/O[C@@]2(C)Oc3c(C)c(O)c4c(O)c(c(/C=N/N5CCN(C)CC5)c(O)c4c3C2=O)NC(=O)/C(C)=C\C=C\[C@H](C)[C@H](O)[C@@H](C)[C@@H](O)[C@@H](C)[C@H](OC(C)=O)[C@@H]1C [Rifampicin] |  |  |  | Kd (μM) / MUC5B (MUC5B; drug 0-10 μM): 44.5 ± 7.1 µM; Kd (μM) / MUC5AC (MUC5AC; drug 0-10 μM): 15.0 ± 1.5 µM; Kd (μM) / MUC2 (MUC2; drug 0-10 μM): 49.7 ± 6.2 µM
3 | 87.6 ± 7 | 163 ± 39.1 | CC(=O)O[C@H]1C(=O)[C@@]2(C)[C@H]([C@H](OC(=O)c3ccccc3)[C@]3(O)C[C@H](OC(=O)[C@H](O)[C@@H](NC(=O)c4ccccc4)c4ccccc4)C(C)=C1C3(C)C)[C@]1(OC(C)=O)CO[C@@H]1C[C@@H]2O [Paclitaxel] | 288.0 ± 24.9 |  |  | 
4 |  |  | COC1=CC(=O)C[C@@H](C)[C@]12Oc1c(Cl)c(OC)cc(OC)c1C2=O [Griseofulvin] |  |  |  | Kd (μM) / MUC5B (MUC5B; drug 0-20 μM): 29.9 ± 5.0 µM; Kd (μM) / MUC5AC (MUC5AC; drug 0-20 μM): 25.4 ± 1.6 µM; Kd (μM) / MUC2 (MUC2; drug 0-20 μM): 45.3 ± 9.6 µM
5 | 124 ± 1.5 | 136 ± 12.1 | O=c1[nH]cc(F)c(=O)[nH]1 [5-Fluorouracil] |  |  | 143 ± 17 | 

Row | SMILES | Kd (MUC5AC) [µM] | Kd (MUC2) [µM] | Kd (μM) / MUC5B (MUC5B; drug 0-200 μM) [µM] | Kd (μM) / MUC2 (MUC2; drug 0-200 μM) [µM] | Kd (MUC5B) [µM] | also measured
6 | Cn1c(=O)c2[nH]cnc2n(C)c1=O [Theophylline] | 185 ± 5.6 |  |  | 390.2 ± 46.5 | 189 ± 7.2 | 
